Laboratory results: ChEMBL document CHEMBL1649156, “Antianaerobic activity of sulopenem compared to six other agents” (2009)

Legend:
Type in all cases: functional
Fusobacterium varium = test: Antimicrobial activity in Fusobacterium varium by CLSI agar dilution method in presence of Sulbactam
[1] = test system: Enterocloster clostridioformis; test: Antimicrobial activity in Clostridium clostridioforme by CLSI agar dilution method in presence of Sulbactam
Tissierella praeacuta = test: Antimicrobial activity in Clostridium hastiforme by CLSI agar dilution method in presence of Sulbactam
[2] = test system: Paeniclostridium sordellii; test: Antimicrobial activity in Clostridium sordellii by CLSI agar dilution method in presence of Sulbactam; conditions: Paraclostridium sordellii
Fusobacterium nucleatum = test: Antimicrobial activity in Fusobacterium nucleatum by CLSI agar dilution method in presence of Sulbactam
Prevotella salivae = test: Antimicrobial activity in Prevotella salivae by CLSI agar dilution method in presence of Sulbactam; conditions: Segatella salivae
Bacteroides uniformis = test: Antimicrobial activity in Bacteroides uniformis by CLSI agar dilution method in presence of Sulbactam
[3] = test system: Bacteroides thetaiotaomicron; test: Antimicrobial activity in Bacteroides thetaiotaomicron by CLSI agar dilution method in presence of Sulbactam
Clostridioides difficile = test: Antimicrobial activity in Clostridium difficile by CLSI agar dilution method in presence of Sulbactam
Lactobacillus = test: Antimicrobial activity in Lactobacillus by CLSI agar dilution method in presence of Sulbactam
[4] = test system: Porphyromonas asaccharolytica; test: Antimicrobial activity in Porphyromonas asaccharolytica by CLSI agar dilution method in presence of Sulbactam
[Clostridium] innocuum = Antimicrobial activity in Clostridium innocuum by CLSI agar dilution method in presence of Sulbactam
Phocaeicola vulgatus = test: Antimicrobial activity in Bacteroides vulgatus by CLSI agar dilution method in presence of Sulbactam
Porphyromonas gingivalis = test: Antimicrobial activity in Porphyromonas gingivalis by CLSI agar dilution method in presence of Sulbactam
[5] = test system: Fusobacterium necrophorum; test: Antimicrobial activity in Fusobacterium necrophorum by CLSI agar dilution method in presence of Sulbactam
Thomasclavelia ramosa = test: Antimicrobial activity in Clostridium ramosum by CLSI agar dilution method in presence of Sulbactam
Hoylesella loescheii = test: Antimicrobial activity in Prevotella loescheii by CLSI agar dilution method in presence of Sulbactam
Eggerthella lenta = test: Antimicrobial activity in Eggerthella lenta by CLSI agar dilution method in presence of Sulbactam
Prevotella sp. = test: Antimicrobial activity in Prevotella sp.by CLSI agar dilution method in presence of Sulbactam
Prevotella corporis = test: Antimicrobial activity in Prevotella corporis by CLSI agar dilution method in presence of Sulbactam
Prevotella denticola = test: Antimicrobial activity in Prevotella denticola by CLSI agar dilution method in presence of Sulbactam
Clostridium perfringens = test: Antimicrobial activity in Clostridium perfringens by CLSI agar dilution method in presence of Sulbactam
Prevotella baroniae = test: Antimicrobial activity in Prevotella baroniae by CLSI agar dilution method in presence of Sulbactam; conditions: Segatella baroniae
[6] = test system: Parabacteroides distasonis; test: Antimicrobial activity in Bacteroides distasonis by CLSI agar dilution method in presence of Sulbactam
Clostridium sp. = test: Antimicrobial activity in Clostridium sp. by CLSI agar dilution method in presence of Sulbactam
Clostridium tertium = test: Antimicrobial activity in Clostridium tertium by CLSI agar dilution method in presence of Sulbactam
Anaerococcus tetradius = test: Antimicrobial activity in Anaerococcus tetradius by CLSI agar dilution method in presence of Sulbactam
Prevotella intermedia = test: Antimicrobial activity in Prevotella intermedia by CLSI agar dilution method in presence of Sulbactam
Clostridium cadaveris = test: Antimicrobial activity in Clostridium cadaveris by CLSI agar dilution method in presence of Sulbactam
[7] = test system: Peptoniphilus asaccharolyticus; test: Antimicrobial activity in Peptoniphilus asaccharolyticus by CLSI agar dilution method in presence of Sulbactam
Prevotella buccae = test: Antimicrobial activity in Prevotella buccae by CLSI agar dilution method in presence of Sulbactam; conditions: Segatella buccae
Bacteroides ovatus = test: Antimicrobial activity in Bacteroides ovatus by CLSI agar dilution method in presence of Sulbactam
Prevotella veroralis = test: Antimicrobial activity in Prevotella veroralis by CLSI agar dilution method in presence of Sulbactam
[8] = test system: Prevotella melaninogenica; test: Antimicrobial activity in Prevotella melaninogenica by CLSI agar dilution method in presence of Sulbactam
Prevotella nigrescens = test: Antimicrobial activity in Prevotella nigrescens by CLSI agar dilution method in presence of Sulbactam
Prevotella bivia = test: Antimicrobial activity in Prevotella bivia by CLSI agar dilution method in presence of Sulbactam
Parvimonas micra = test: Antimicrobial activity in Micromonas micros by CLSI agar dilution method in presence of Sulbactam
[9] = test system: Peptostreptococcus anaerobius; test: Antimicrobial activity in Peptostreptococcus anaerobius by CLSI agar dilution method in presence of Sulbactam
Anaerococcus prevotii = test: Antimicrobial activity in Anaerococcus prevotii by CLSI agar dilution method in presence of Sulbactam
Clostridium butyricum = test: Antimicrobial activity in Clostridium butyricum by CLSI agar dilution method in presence of Sulbactam
Finegoldia magna = test: Antimicrobial activity in Finegoldia magna by CLSI agar dilution method in presence of Sulbactam
Bacteroides fragilis = test: Antimicrobial activity in Bacteroides fragilis by CLSI agar dilution method in presence of Sulbactam
Bifidobacterium = test: Antimicrobial activity in Bifidobacterium by CLSI agar dilution method in presence of Sulbactam
Prevotella disiens = test: Antimicrobial activity in Prevotella disiens by CLSI agar dilution method in presence of Sulbactam
[10] = test system: Paraclostridium bifermentans; test: Antimicrobial activity in Clostridium bifermentans by CLSI agar dilution method in presence of Sulbactam
Prevotella bergensis = test: Antimicrobial activity in Prevotella bergensis by CLSI agar dilution method in presence of Sulbactam; conditions: Hallella bergensis
Bacteroides stercoris = test: Antimicrobial activity in Bacteroides stercoris by CLSI agar dilution method in presence of Sulbactam
Cutibacterium acnes = test: Antimicrobial activity in Propionibacterium acnes by CLSI agar dilution method in presence of Sulbactam
Actinomyces = test: Antimicrobial activity in Actinomyces by CLSI agar dilution method in presence of Sulbactam
Fusobacterium mortiferum = test: Antimicrobial activity in Fusobacterium mortiferum by CLSI agar dilution method in presence of Sulbactam
Hoylesella oralis = test: Antimicrobial activity in Prevotella oralis group by CLSI agar dilution method in presence of Sulbactam

## CC1(C)S[C@@H]2[C@H](NC(=O)[C@H](N)c3ccccc3)C(=O)N2[C@H]1C(=O)O [AMPICILLIN]
Fusobacterium varium
  MIC50: 2 µg/mL
  MIC90: 2 µg/mL
[1]
  MIC: 1 µg/mL
Tissierella praeacuta
  MIC: 1 µg/mL
[2]
  MIC: ≤ 0.125 µg/mL
Fusobacterium nucleatum
  MIC: ≤ 0.125 µg/mL
  MIC50: ≤ 0.125 µg/mL
  MIC90: ≤ 0.125 µg/mL
Prevotella salivae
  MIC: ≤ 0.125 µg/mL
Bacteroides uniformis
  MIC: 1 µg/mL
  MIC50: 1 µg/mL
[3]
  MIC50: 2 µg/mL
  MIC90: 8 µg/mL
Clostridioides difficile
  MIC50: 2 µg/mL
  MIC90: 2 µg/mL
Lactobacillus
  MIC50: 1 µg/mL
  MIC90: 1 µg/mL
[4]
  MIC: ≤ 0.125 µg/mL
[Clostridium] innocuum
  MIC: ≤ 0.125 µg/mL
Phocaeicola vulgatus
  MIC50: 2 µg/mL
  MIC90: 16 µg/mL
Porphyromonas gingivalis
  MIC: ≤ 0.125 µg/mL
[5]
  MIC: ≤ 0.125 µg/mL
  MIC50: ≤ 0.125 µg/mL
Thomasclavelia ramosa
  MIC: ≤ 0.125 µg/mL
Hoylesella loescheii
  MIC: 0.5 µg/mL
Eggerthella lenta
  MIC50: 1 µg/mL
  MIC90: 2 µg/mL
Prevotella sp.
  MIC: ≤ 0.125 µg/mL
Prevotella corporis
  MIC: ≤ 0.125 µg/mL
  MIC50: ≤ 0.125 µg/mL
Prevotella denticola
  MIC50: 0.5 µg/mL
  MIC90: 2 µg/mL
Clostridium perfringens
  MIC: ≤ 0.125 µg/mL
  MIC50: ≤ 0.125 µg/mL
  MIC90: 0.25 µg/mL
Prevotella baroniae
  MIC: ≤ 0.125 µg/mL
[6]
  MIC50: 8 µg/mL
  MIC90: 32 µg/mL
Clostridium sp.
  MIC50: 0.25 µg/mL
  MIC90: 0.5 µg/mL
Clostridium tertium
  MIC: 0.25 µg/mL
  MIC50: 0.25 µg/mL
Anaerococcus tetradius
  MIC: ≤ 0.125 µg/mL
  MIC50: ≤ 0.125 µg/mL
  MIC90: ≤ 0.125 µg/mL
Prevotella intermedia
  MIC50: 0.25 µg/mL
  MIC90: 0.5 µg/mL
Clostridium cadaveris
  MIC: ≤ 0.125 µg/mL
[7]
  MIC: ≤ 0.125 µg/mL
  MIC50: ≤ 0.125 µg/mL
Prevotella buccae
  MIC50: 0.25 µg/mL
  MIC90: 2 µg/mL
Bacteroides ovatus
  MIC: 1 µg/mL
  MIC50: 1 µg/mL
  MIC90: 4 µg/mL
Prevotella veroralis
  MIC: ≤ 0.125 µg/mL
[8]
  MIC50: 0.5 µg/mL
  MIC90: 2 µg/mL
Prevotella nigrescens
  MIC50: 0.25 µg/mL
  MIC90: 0.5 µg/mL
Prevotella bivia
  MIC50: 1 µg/mL
  MIC90: 4 µg/mL
Parvimonas micra
  MIC: ≤ 0.125 µg/mL
  MIC50: ≤ 0.125 µg/mL
  MIC90: 1 µg/mL
[9]
  MIC50: 0.25 µg/mL
  MIC90: 16 µg/mL
Anaerococcus prevotii
  MIC: ≤ 0.125 µg/mL
Clostridium butyricum
  MIC: 1 µg/mL
Finegoldia magna
  MIC50: 0.25 µg/mL
  MIC90: 0.5 µg/mL
Bacteroides fragilis
  MIC50: 1 µg/mL
  MIC90: 8 µg/mL
Bifidobacterium
  MIC: ≤ 0.125 µg/mL
  MIC50: ≤ 0.125 µg/mL
  MIC90: 0.25 µg/mL
Prevotella disiens
  MIC: ≤ 0.125 µg/mL
  MIC50: 0.25 µg/mL
[10]
  MIC: 0.5 µg/mL
Prevotella bergensis
  MIC: 1 µg/mL
Bacteroides stercoris
  MIC: 1 µg/mL
  MIC50: 2 µg/mL
Cutibacterium acnes
  MIC: ≤ 0.125 µg/mL
  MIC50: ≤ 0.125 µg/mL
  MIC90: 0.25 µg/mL
Actinomyces
  MIC: ≤ 0.125 µg/mL
  MIC50: 0.25 µg/mL
Fusobacterium mortiferum
  MIC50: 1 µg/mL
  MIC90: > 32 µg/mL
Hoylesella oralis
  MIC: ≤ 0.125 µg/mL
